Measurements reported in US20230340417A1, “DEFINED MATRIX FOR THE DIFFERENTIATION OF ISLETS” (Washington University, priority 2022, published 2023).
“Also recorded” adds a separate entry of the source.

Key:
[1] = tested on: stem cells; test: Adhesion of cells to plates coated with different extracellular matrix proteins during differentiation; type: cell-based, human; conditions: for adherence of seeding stem cells to the ECM to start differentiation: FIG. 11; for attachment of cells to the plate in early differentiation stages: stage 1 and 2, ECM protein used alone; for time at which cells came off the plate: stage/day of protocol (s = stage, d = day)
Method: (§1) Experiment goal: test if our SC-β cell differentiation method works with different extracellular matrix proteins. Stem cells were propagated on Matrigel as normal. Cells were plated on the different ECMs when seeding the differentiations. For the combinations of laminin 111 and collagen IV, the total protein concentration was kept the same. The ratio of these was changed from 3:1, 1:1, and 1:3. Some of the ECMs induced the cells to form clusters on the plate in stage 6, so some clusters were scrapped off instead of aggregating them for comparison. The differentiation protocol utilized was previously published (Hogrebe et al Nature Biotechnology 2020; Hogrebe et al Nature Protocols 2021; and WO 2019/222487) and modified to include different ECM proteins.

[2] = tested on: human pluripotent stem cells; test: SC-β cell differentiation on different extracellular matrix proteins; type: cell-based; conditions: for outcome of differentiation of stem cells to SC-β cells: cells plated on the ECM when seeding the differentiation
Method: as §1

Molecule	adherence of seeding stem cells to the ECM to start differentiation [1]	attachment of cells to the plate in early differentiation stages [1]	attachment of cells to the plate in early differentiation stages ([1]; listed as collagen I)	time at which cells came off the plate [1]	adhesion of endocrine cells to the plate ([1]; stage 6)	outcome of differentiation of stem cells to SC-β cells [2]	cell types obtained ([2]; differentiations done on vitronectin only, FIG. 12)
collagen 1: extracellular matrix protein tested as plate coating for differentiation	weren't as adhesive	detached completely	monolayer of stem cells detaching from the plate	came off on s2d1			
collagen IV: extracellular matrix protein tested as plate coating, alone or combined with laminin 111		detached completely; also recorded: monolayer of stem cells detaching from the plate		started coming off on s1d3	makes the endocrine cells stick to the plate		
fibronectin	do not effectively adhere					failed	
vitronectin: extracellular matrix protein tested as plate coating for differentiation (protein, UniProt P04004 20-478, looked up) Vitronectin: DQESCKGRCTEGFNVDKKCQCDELCSYYQSCCTDYTAECKPQVTRGDVFTMPEDEYTVYDDGEEKNNATVHEQVGGPSLTSDLQAQSKGNPEQTPVLKPEEEAPAPEVGASKPEGIDSRPETLHPGRPQPPAEEELCSGKPFDAFTDLKNGSLFAFRGQYCYELDEKAVRPGYPKLIRDVWGIEGPIDAAFTRINCQGKTYLFKGSQYWRFEDGVLDPDYPRNISDGFDGIPDNVDAALALPAHSYSGRERVYFFKGKQYWEYQFQHQPSQEECEGSSLSAVFEHFAMMQRDSWEDIFELLFWGRTSAGTRQPQFISRDWHGVPGQVDAAMAGRIYISGMAPRPSLAKKQRFRHRNRKGYRSQRGHSRGRNQNSRRPSRATWLSLFSSEESNLGANNYDDYRMDWLVPATCEPIQSVFFFSGDKYYRVNLRTRRVDTVDPPYPRSIAQYWLGCPAPGHL	do effectively adhere					failed	a lot of off-target cell types and no endocrine cells
